The source of these data is patent US5747493A, “Dopamine re-uptake inhibitor” (Pola Chemical Industries, Inc., priority 1993, dated 1998).

The target in the experiment is T1, [^3 H] GBR12935 binding in rat strialal crude membrane (Rattus norvegicus, UniProt P23977).
T1 construct: from tissue; host or cells: corpus striatum of Wistar male rat, crude membrane
In words: [^3 H] GBR12935 binding in rat striatal crude membrane. The arrangement: species or system rat (Wistar male). The conditions noted are these: 1 nM [^3 H] GBR12935, rat striatal crude membrane; for IC50: 4° C., 80 minutes. On the procedure:
After a cold 50 mM Tris-citrate buffer (pH 7.4, including 120 mM NaCl and 4 mM MgCl2) was added to a corpus striatum taken out of a Wistar male rat aged 12-13 weeks (while keeping on ice) to homogenize the resultant mixture, the homogenate was subjected twice to centrifugation under chilling for 20 minutes at 48,000 g. The final sedimentation residue thus obtained was suspended again in the same buffer as that used above to conserve the suspension at -80° C.
After thawing this frozen suspension, the thawed suspension was diluted to one thousandth of the amount of the tissue with the same buffer as that used above. To 0.8 ml of this crude membrane sample, were added [^3 H] GBR12935 (final concentration: 1 nM) and individual test substances and amantadine which is in clinical use at present (developing the concentration within a range of from 10^-3 to 10^-9 M) to 1 ml in total. Each of the resulting sample mixtures was incubated at 4° C. for 80 minutes in a plastic tube. After the incubation, the mixture was filtered by means of suction on a glass filter (Whatman GP/B) soaked in a 0.1% BSA, and the filter was washed three times with 3 ml of cold 0.9% NaCl. The thus-obtained filter was placed in a vial, and 10 ml of Aquazol-2 were added to conserve the filter overnight. Thereafter, the radioactivity of the sample was measured by a liquid scintillation counter. An IC50 value and a Hill coefficient were determined from the obtained uptake inhibition curve as to each of the test samples.

Structures are written as SMILES. Counter-ions that a name gives are not always drawn.

The IC50 is the concentration that inhibits the measured activity by half. Higher therefore signals a need for much substance.

T1 sequence (P23977 whole entry): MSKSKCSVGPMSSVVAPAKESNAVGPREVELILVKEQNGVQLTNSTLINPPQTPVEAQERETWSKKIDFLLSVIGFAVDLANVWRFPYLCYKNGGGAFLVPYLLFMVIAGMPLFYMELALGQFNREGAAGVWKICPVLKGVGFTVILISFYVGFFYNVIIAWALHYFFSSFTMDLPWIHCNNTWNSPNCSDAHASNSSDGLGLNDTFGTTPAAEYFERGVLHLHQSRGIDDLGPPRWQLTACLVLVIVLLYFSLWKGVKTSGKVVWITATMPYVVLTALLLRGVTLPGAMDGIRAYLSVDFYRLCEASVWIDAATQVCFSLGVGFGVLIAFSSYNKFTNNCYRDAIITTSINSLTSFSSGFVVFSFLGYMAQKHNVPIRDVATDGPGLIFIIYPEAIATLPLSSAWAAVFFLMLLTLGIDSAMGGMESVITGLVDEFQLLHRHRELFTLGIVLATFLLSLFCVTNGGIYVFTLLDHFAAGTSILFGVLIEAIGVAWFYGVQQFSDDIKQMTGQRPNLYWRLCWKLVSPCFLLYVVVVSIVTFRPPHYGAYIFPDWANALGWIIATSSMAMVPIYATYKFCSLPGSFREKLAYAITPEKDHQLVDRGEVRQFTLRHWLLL

Regarding `Cl.Cl.OC(CNc1ccc(F)cc1)CN1CCN(CCCC(c2ccc(F)cc2)c2ccc(F)cc2)CC1` (centres unmarked) [Compound 9, 1-[4,4-Bis(4-fluorophenyl)-butyl]-4-[3-(4-fluorophenyl-amino)-2-hydroxypropyl]-piperazine dihydrochloride], the “Hill coefficient (nH)” value worked out at 0.74 ± 0.01 and the IC50 was found to be 0.004 ± 0.00023 µM.

`OC(CNc1ccccc1)CN1CCN(CCC(c2ccc(F)cc2)c2ccc(F)cc2)CC1` (centres unmarked) [Compound 18, 1-[3,3-Bis(4-fluorophenyl)-propyl]-4-(2-hydroxy-3-phenylaminopropyl)piperazinedihydrochloride]: the “Hill coefficient (nH)” value is given as 0.67 ± 0.04 and the IC50 stood at 0.007 ± 0.00065 µM.

With `CC(C)(C)c1cc(NCC(O)CN2CCN(CCCC(c3ccc(F)cc3)c3ccc(F)cc3)CC2)cc(C(C)(C)C)c1O` (centres unmarked) [Compound 22, 1-[4,4-Bis(4-fluorophenyl)-butyl]-4-[3-(3,5-di-tert-butyl-4-hydroxyphenylamino)-2-hydroxypropyl]piperazinetrimaleate], the “Hill coefficient (nH)” value turned out to be 0.78 ± 0.07 and the IC50 was 0.087 ± 0.007 µM.

Regarding `O=C(O)/C=C\C(=O)O.O=C(O)/C=C\C(=O)O.Oc1ccc(NCC(O)CN2CCN(CCCC(c3ccc(F)cc3)c3ccc(F)cc3)CC2)cc1` (centres unmarked) [Compound 25, 1-[4,4-Bis(4-fluorophenyl)-butyl]-4-[2-hydroxy-3-(4-hydroxyphenylamino)propyl]-piperazine dimaleate], the “Hill coefficient (nH)” value amounted to 0.63 ± 0.09 and the IC50 was 0.01 ± 0.003 µM.

Regarding `COc1cc(NCC(O)CN2CCN(CCCC(c3ccc(F)cc3)c3ccc(F)cc3)CC2)cc(OC)c1OC.O=C(O)/C=C\C(=O)O.O=C(O)/C=C\C(=O)O` (centres unmarked) [Compound 11, 1-[4,4-Bis(4-fluorophenyl)-butyl]-4-[2-hydroxy-3-(3,4,5-trimethoxyphenylamino)propyl]-piperazine dimaleate], the “Hill coefficient (nH)” value is listed as 0.79 ± 0.04 and the IC50 came out at 0.043 ± 0.00532 µM.

Consider `Cl.Cl.O=[N+]([O-])c1ccc(NCC(O)CN2CCN(CCCC(c3ccc(F)cc3)c3ccc(F)cc3)CC2)cc1` (centres unmarked) [Compound 20, 1-[4,4-Bis(4-fluorophenyl)-butyl]-4-[2-hydroxy-3-(4-nitrophenylamino)propyl]-piperazine dihydrochloride], for which the “Hill coefficient (nH)” value is 0.69 ± 0.04 and the IC50 was found to be 0.008 ± 0.0005 µM.

Consider `COc1ccc(NCC(O)CN2CCN(CCCC(c3ccc(F)cc3)c3ccc(F)cc3)CC2)cc1.Cl.Cl` (centres unmarked) [Compound 13, 1-[4,4-Bis(4-fluorophenyl)-butyl]-4-(2-hydroxy-3-(4-methoxyphenylamino)propyl]-piperazine dihydrochloride], for which the “Hill coefficient (nH)” value is 0.52 ± 0.02 and the IC50 amounted to 0.003 ± 0.00016 µM.

Consider `NC12CC3CC(CC(C3)C1)C2` [Amantadine, amantadine, reference compound], for which the “Hill coefficient (nH)” value amounted to 1.36 ± 0.08. The IC50 (amantadine line in μM) came out at 819 ± 30.9 µM.

As to `OC(CNc1ccccc1)CN1CCN(C(c2ccc(F)cc2)c2ccc(F)cc2)CC1` (centres unmarked) [Compound 2, 1-[Bis(4-fluorophenyl)methyl]-4-(2-hydroxy-3-phenylamino-propyl)piperazine dihydro-chloride], the “Hill coefficient (nH)” value is 0.66 ± 0.05 and the IC50 is 0.02 ± 0.003 µM.

As to `OC(CNc1ccccc1)CN1CCN(CCCC(c2ccc(F)cc2)c2ccc(F)cc2)CC1` (single isomer, unassigned; (-)) [Compound 15, (-)-1-[4,4-Bis(4-fluoro-phenyl)butyl]-4-(2-hydroxy-3-phenylaminopropyl)piperazinedihydrochloride], the “Hill coefficient (nH)” value turned out to be 0.72 ± 0.05 and the IC50 amounted to 0.002 ± 0.0001 µM.

As for `O=C(O)/C=C\C(=O)O.O=C(O)/C=C\C(=O)O.O=C(O)/C=C\C(=O)O.OC(CNc1ccncc1)CN1CCN(CCCC(c2ccc(F)cc2)c2ccc(F)cc2)CC1` (centres unmarked) [Compound 17, 1-[4,4-Bis(4-fluorophenyl)-butyl]-4-[2-hydroxy-3-(4-pyridylamino)propyl]-piperazine trimaleate], the “Hill coefficient (nH)” value was determined as 0.74 ± 0.04 and the IC50 was 0.034 ± 0.002 µM.

Regarding `Cl.Cl.OC(CNc1ccc(Cl)cc1)CN1CCN(CCCC(c2ccc(F)cc2)c2ccc(F)cc2)CC1` (centres unmarked) [Compound 10, 1-[4,4-Bis(4-fluorophenyl)-butyl]-4-[3-(4-chlorophenyl-amino)-2-hydroxypropyl]-piperazine dihydrochloride], the “Hill coefficient (nH)” value came out at 0.82 ± 0.03 and the IC50 came to 0.003 ± 0.00032 µM.

Turning to `OC(CNc1ccc(Cl)c(Cl)c1)CN1CCN(CCCC(c2ccc(F)cc2)c2ccc(F)cc2)CC1` (centres unmarked) [Compound 12, 1-[4,4-Bis(4-fluorophenyl)-buyl]-4-[3-(3,4-dichloro-phenylamino)-2-hydroxy-propyl]piperazinedihydrochloride], the “Hill coefficient (nH)” value is recorded as 0.74 ± 0.03 and the IC50 was determined as 0.012 ± 0.00072 µM.

Regarding `Cc1ccc(NCC(O)CN2CCN(CCCC(c3ccc(F)cc3)c3ccc(F)cc3)CC2)cc1.Cl.Cl` (centres unmarked) [Compound 14, 1-[4,4-Bis(4-fluorophenyl)-butyl]-4-[2-hydroxy-3-(4-methylphenylamino)propyl]-piperazine dihydrochloride], the “Hill coefficient (nH)” value is listed as 0.65 ± 0.03 and the IC50 was 0.004 ± 0.00041 µM.

`OC(CNc1ccccc1)CN1CCN(CCCC(c2ccc(F)cc2)c2ccc(F)cc2)CC1` (single isomer, unassigned; (+)) [Compound 16, (+)-1-[4,4-Bis(4-fluoro-phenyl)butyl]-4-(2-hydroxy-3-phenylaminopropyl)piperazinedihydrochloride]: the “Hill coefficient (nH)” value stood at 0.57 ± 0.04 and the IC50 came to 0.002 ± 0.00053 µM.

As for `Nc1ccc(NCC(O)CN2CCN(CCCC(c3ccc(F)cc3)c3ccc(F)cc3)CC2)cc1` (centres unmarked) [Compound 23, 1-[3-(4-Aminophenylamino)-2-hydroxypropyl]-4-(4,4-bis(4-fluorophenyl)butyl]piperazinetrimaleate], the “Hill coefficient (nH)” value stood at 0.64 ± 0.09 and the IC50 was determined as 0.037 ± 0.009 µM.

Turning to `OC(CNc1ccccc1)CN1CCN(CC(c2ccccc2)c2ccccc2)CC1` (centres unmarked) [Compound 19, 1-(2,2-Diphenylethyl)-4-(2-hydroxy-3-phenylamino-propyl)piperazinedihydrochloride], the “Hill coefficient (nH)” value came out at 0.76 ± 0.02 and the concentration for half-maximal inhibition (IC50) is 0.028 ± 0.002 µM.

As to `OC(CNc1ccccc1)CN1CCN(CCCCC(c2ccc(F)cc2)c2ccc(F)cc2)CC1` (centres unmarked) [Compound 21, 1-[5,5-Bis(4-fluorophenyl)-pentyl]-4-(2-hydroxy-3-phenylaminopropyl)piperazinedihydrochloride], the “Hill coefficient (nH)” value came to 0.89 ± 0.07 and the IC50 turned out to be 0.006 ± 0.00032 µM.

For `CN(C)c1ccc(NCC(O)CN2CCN(CCCC(c3ccc(F)cc3)c3ccc(F)cc3)CC2)cc1` (centres unmarked) [Compound 24, 1-[4,4-Bis(4-fluorophenyl)-butyl]-4-[3-(4-dimethyl-aminophenylamino)-2-hydroxy-propyl]piperazine dimaleate], the “Hill coefficient (nH)” value was 0.94 ± 0.10 and the IC50 is 0.109 ± 0.019 µM.
